Experimental data: US4288438A, “Nitrogen-containing heterocyclic ring derivatives and analgesic and anti-inflammatory compositions and methods employing them” (priority 1976, dated 1981)

Assays:
writhings (acetic acid) = test: Whittle's method: acetic acid writhing, oral (Table 2); assay type: in vivo, Male ICR-Mice; conditions: mouse, 0.6% acetic acid i.p.
Experimental: (§1) Male ICR-Mice (weighting 25-35 g.), one group being 12 mice, fasted overnight were used in this test. The sample was orally administered, and 20 minutes after, 5 ml./Kg. of 0.4% Evance blue was injected by intravenously and further 10 minutes after, 10 ml./Kg. of 0.6% acetic acid was injected by intraperitoneally. The number of writhings after 20 minutes since the administration of acetic acid was recorded and 10 minutes after since then, the mice were killed by dislocation of the neck, the dye leaked in the abdominal cavity was washed out with 5 ml. of 0.9% saline to make the total amount 10 ml., and thereafter furs, blood corpuscles, etc., intermingled were removed by centrifugal separation at 3,000 r.p.m. for 5 minutes. Furthermore, for preventing turbidity caused by protein, 0.1 ml. of an aqueous 0.1 normal sodium hydroxide was added and then the absorbance at 590 nm was measured. The inhibition ratio of the sample administered rat groups to control groups was calculated.
(§2) In addition, the test samples used in the aforesaid tests (a), (b), (c) and (d) were prepared by suspending the test compounds, in the cases of using the compounds of Test Nos. 1,2,4,5,6,8,9,10,11, 16-21 and p henylbutazone,in an aqueous 0.5% methyl cellulose solution, dissolving the test compounds, in the cases of using the compounds of Test Nos. 13,14 and 15, in aqueous solution of 0.5% methyl cellulose, and further dissolving the test compounds, in the cases of using the compounds of Test Nos. 3,7 and 12 and aminopyrine, in distilled water.

[1] = test system: Permeability (dye leaked in the abdominal cavity); test: Whittle's method: permeability, dye leaked in the abdominal cavity, oral (Table 2); assay type: in vivo, Male ICR-Mice
Experimental: (b) Whittle's method (British J. Pharmacol.; 22, 246-253 (1964))
as §1, §2

[2] = test system: Hyperthemia caused by Brewer's yeast; test: Antipyretic effect, Brewer's yeast hyperthermia, rectal temperature (Table 3); assay type: in vivo, Male Wister rats; conditions: rat, 50mg/kg p.o., in °C (unit assumed); for Rectal temperature (mean ± SE) 1 hour / Rectal temperature (mean ± SE) 2 hours / Rectal temperature (mean ± SE) 4 hours: * p<0.05 vs before for Test Nos. 1, 2 and Aminopyrine; for Rectal temperature (mean ± SE) 6 hours: * p<0.05 vs before for Test No. 2 and Aminopyrine; for Rectal temperature (mean ± SE) before: before administration
Experimental: Male Wister rats (weighting 130-150 g.), one group being 5 rats, were used. Hyperthemia was caused by subcutaneous injection of 2 ml./rat of 20% Brewer's yeast suspension. 18 hours later, the rats showing a rise in temperature exceeding 1° C. were selected and allocated into groups each consisting of 5 rats. The sample was orally administered and then the body temperature was measured with the passage of time for 6 hours since then. In addition, the body temperature was measured by measuring the temperature in the rectum by means of a thermister thermometer.
as §2

[3] = test system: Carrageenin-induced edema; test: Carrageenin-induced edema, hind paw, oral (Table 1); assay type: in vivo, Male Wister rats; conditions: rat, 1 hour before Carrageenin, edema weight after 3 hours; for inhibition in vivo at 50 mg/kg: po; for Inhibition (%) p.o. 50mg/kg / inhibition in vivo at 50 mg/kg: p.o. 50 mg/kg
Experimental: (a) Carrageenin-induced edema
Male Wister rats (weighting 130-170 g.), one group being 6 rats, fasted overnight were used. According to […] [Proc. Soc. […] After 3 hours, each rat was sacrificed by chloroform and the hind paw was cut and weighed immediately. By using the value obtained by subtracting the weight of the untreated hind paw from the weight of the hind paw having injected therein the Carrageenin as the weight of edema, the inhibitory ratio of the sample administered rat groups to control groups was calculated. The sample was orally administered one hour before the injection of Carrageenin.
as §2

[4] = Acute toxicity, mouse (Table 4); assay type: in vivo
[5] = Acute toxicity, rat (Table 4); assay type: in vivo, Male Wister rats; conditions: 500 mg/Kg oral, 7 days, deaths/animals
Experimental: Male Wister rats (weighting 130-170 g.), one group being 5 rats, fasted overnight were used in this test.
as §2

[6] = mouse, 25 mg/kg p.o., Evance blue i.v., acetic acid i.p., 590 nm
[7] = mouse, 50 mg/kg p.o., Evance blue i.v., acetic acid i.p., 590 nm
[8] = deaths/animals, method given for rats only (500 mg/Kg oral, 7 days)

Compound | Inhibition (%) Writhing S 25mg/kg p.o. (writhings (acetic acid)) [%] | Inhibition (%) Writhing S 50mg/kg p.o. (writhings (acetic acid)) [%] | Inhibition (%) Permeability 25mg/kg p.o. [1, 6] [%] | Inhibition (%) Permeability 50mg/kg p.o. [1, 7] [%] | Inhibition (%) p.o. 50mg/kg [3] [%] | Inhibition (%) p.o. 100mg/kg [3] [%] | inhibition in vivo at 50 mg/kg [3] [%] | further results
Cc1c(N(C)C)c(=O)n(-c2ccccc2)n1C [Aminopyrine, reference compound] | 29.6 | 58.1 | 28.5 | 41.7 | – | – | – | Rectal temperature (mean ± SE) 1 hour [2]: 37.92 ± 0.09; Rectal temperature (mean ± SE) 2 hours [2]: 37.49 ± 0.10; Rectal temperature (mean ± SE) 4 hours [2]: 37.39 ± 0.07; Rectal temperature (mean ± SE) 6 hours [2]: 37.76 ± 0.18; Rectal temperature (mean ± SE) before [2]: 39.24 ± 0.14
CN1CCCn2c1cc(-c1ccccc1)cc2=O [Test No. 1] | 41.8 | 87.6 | 18.0 | 44.4 | 71.5 | – | – | Rectal temperature (mean ± SE) 1 hour [2]: 37.07 ± 0.15; Rectal temperature (mean ± SE) 2 hours [2]: 36.17 ± 0.32; Rectal temperature (mean ± SE) 4 hours [2]: 36.12 ± 0.17; Rectal temperature (mean ± SE) 6 hours [2]: 38.52 ± 0.47; Rectal temperature (mean ± SE) before [2]: 38.82 ± 0.05
O=c1cc(-c2ccccc2)cc2n1CCN2 [Test No. 2] | 28.9 | 52.6 | 26.9 | 51.1 | 71.6 | 76.1 | – | Rectal temperature (mean ± SE) 1 hour [2]: 37.80 ± 0.10; Rectal temperature (mean ± SE) 2 hours [2]: 36.74 ± 0.24; Rectal temperature (mean ± SE) 4 hours [2]: 36.77 ± 0.39; Rectal temperature (mean ± SE) 6 hours [2]: 37.51 ± 0.57; Rectal temperature (mean ± SE) before [2]: 38.89 ± 0.21; Number of deaths Mouse ([4]; in vivo): 0/5
Cc1cc2n(c(=O)c1)CCN2C [Test No. 3, 1,7-dimethyl-5-oxo-1,2,3,5-tetrahydroimidazo[1,2-a]pyridine] | 52.1 | 75.3 | 18.5 | 46.2 | – | 51.5 | 52.3 | Number of deaths Mouse [4, 8]: 1/5
O=c1cc(-c2ccccc2)cc2n1CC[S+]2[O-] (centres unmarked) [Test No. 4] | – | – | – | – | – | – | – | Number of deaths Rat [5]: 2/5; Number of deaths Mouse [4, 8]: 1/5
CN1CCn2c1cc(-c1ccccc1)cc2=O [Test No. 5] | 41.2 | 67.4 | 20.0 | 42.1 | – | – | – | –
O=c1cc(-c2ccccc2)cc2n1CCCN2 [Test No. 6] | 69.0 | 91.5 | 28.4 | 59.0 | 72.7 | 80.5 | – | –
CN1CCn2c1ccc(-c1ccccc1)c2=O [Test No. 7, 1-methyl-5-oxo-6-phenyl-1,2,3,5-tetrahydroimidazo[1,2-a]pyridine] | 59.1 | 95.3 | 49.3 | 63.8 | – | 79.5 | 75 | –
Cc1cc2n(c(=O)c1)CCCN2C [Test No. 8] | 35.6 | 66.4 | – | – | 53.3 | – | – | Inhibition (%) Permeability 25mg/kg p.o. ([1]; 25 mg/kg): 32.4%; Inhibition (%) Permeability 50mg/kg p.o. ([1]; 50 mg/kg): 25.8%
CCN1CCn2c1cc(-c1ccccc1)cc2=O [Test No. 9] | – | – | – | – | – | – | – | Number of deaths Rat [5]: 0/5; Number of deaths Mouse [4, 8]: 0/5
O=c1cc(-c2ccccc2)cc2n1CCS2 [Test No. 10] | – | – | – | – | – | – | – | Number of deaths Rat [5]: 0/5; Number of deaths Mouse [4, 8]: 0/5
CN1CCCn2c1cc(-c1ccc(Cl)cc1)cc2=O [Test No. 11] | – | – | – | – | 47.1 | – | – | –
CN1CCn2c1cc1c(c2=O)CCC1 [Test No. 13, 1-methyl-5-oxo-1,2,3,6,7,8-hexahydroimidazo[1,2-b]1H-2-pyrindine] | – | – | – | – | 57.1 | – | – | –
CN1CCn2c1cc1c(c2=O)CCCC1 [Test No. 14, 1-methyl-5-oxo-1,2,3,5,6,7,8,9-octahydroimidazo[1,2-b]isoquinoline] | – | – | – | – | – | – | 64.1 | –
CN1CCCn2c1cc1c(c2=O)CCCC1 [Test No. 15, 1-methyl-6-oxo-1,2,3,4,6,7,8,9,10-nonahydropyrimido[1,2-b]isoquinoline] | – | – | – | – | – | – | 52.4 | –
Cc1cc2n(c(=O)c1-c1ccccc1)CCN2C [Test No. 16, 1,7-dimethyl-5-oxo-6-phenyl-1,2,3,5-tetrahydroimidazo[1,2-a]pyridine] | – | – | – | – | – | – | 47.7 | –
Cc1c(-c2ccccc2)cc2n(c1=O)CCCN2C [Test No. 17, 1,7-dimethyl-6-oxo-8-phenyl-1,2,3,4,6-pentahydropyrido[1,2-a]pyrimidine] | – | – | – | – | – | – | 45.7 | –
Cc1cc(=O)n2c(c1-c1ccccc1)N(C)CC2 [Test No. 18, 1,7-dimethyl-5-oxo-8-phenyl-1,2,3,5-tetrahydroimidazo[1,2-a]pyridine] | – | – | – | – | – | 41.0 | – | –
Cc1cc(=O)n2c(c1-c1ccccc1)NCCC2 [Test No. 19] | – | – | – | – | – | 46.7 | – | –
CC1CNc2cc(-c3ccccc3)cc(=O)n21 (centres unmarked) [Test No. 20] | – | – | – | – | 72.2 | – | – | –
O=c1cc(-c2ccccc2)cc2sccn12 [Test No. 21] | – | – | – | – | 46.9 | – | – | –
CCCCC1C(=O)N(c2ccccc2)N(c2ccccc2)C1=O [phenylbutazone, reference compound] | – | – | – | – | – | 51.2 | 44.5 | –
